Test results from patent US20260078103A1, “ISOQUINOLONES AS PI3K INHIBITORS” (OnKure, Inc., priority 2022, published 2026).

Experiments:
Format in all cases: cell-based
[1] = tested on: T47D cells expressing mutant PI3Ka (H1047R); experiment: In vitro cell proliferation, T47D cells (CellTiter-Glo); details: inhibition of proliferation, 72 hours, read-out: Avg T-47D EC50
Procedure: (§1) In Vitro Cell Proliferation: Determination of EC50 Values for Inhibition of Proliferation in T47D Cells Expressing Mutant PI3Ka (H1047R) Mutation and SKBR3 Cells Express WT PI3Ka.
(§2) T47D or SKBR3 cells were trypsinized, resuspended in culture media and seeded onto assay ready plates. T47D culture media consisted of RPMI, 10% FBS and Insulin (0.2 units/mL). SKBR3 culture media consisted of McCoys 5a and 10% FBS. Cells were seeded at a density of 1,500 cells/well and dispensed in 50 μl onto 384 well assay ready plates (Corning, 89089-790). Assay ready plates had previously been stamped with 10-point dilutions of compounds of interest, as well as controls. The Echo655 is used to stamp plates at 40 nL of compound or DMSO. Cells were grown for 72 hours at 37° Celsius and 5% CO2. After 72 hours, cells were equilibrated at room temperature for 15 minutes. 30 μL of CellTiter-Glo reagent is added to the plate, which is then shaken for 30 minutes at temperature at 300-500 rpm. Cells are then read on an Envision plate reader. The percentage of inhibition of proliferation was calculated using the following formula: % Inhibition=100×(LumD−Lumsample)/(LumD−Lumlnh), where D is obtained from cells treated with 0.1% DMSO only; lnh is obtained from cells treated with 10 uM Alpelisib. The effective concentration achieving 50% inhibition of proliferation (EC50) is calculated by fitting the Curve using Xlfit (v5.3.1.3), equation 201: Y=Bottom+(Top−Bottom)/(1+10^((LogEC50−X)*HillSlope)).

[2] = tested on: SKBR3 cells express WT PI3Ka; experiment: In vitro cell proliferation, SKBR3 cells (CellTiter-Glo); details: inhibition of proliferation
Procedure: as §1, §2

[3] = tested on: phosphorylation of AKT (pAKT) in T47D cells expressing mutant PI3Ka (H1047R); experiment: In vitro cell pAKT (Ser473) HTRF, T47D cells; details: cellular pAKT, T47D cells, mutant PI3Ka (H1047R), 6 hours; read-out: Avg T-47D IC50
Procedure: (§3) In Vitro Cell pAKT: Determination of IC50 Values for Inhibition of Phosphorylation of AKT (pAKT) in T47D Cells Expressing Mutant PI3Ka (H1047R) Mutation and SKBR3 Cells Express WT PI3Ka.
(§4) T47D or SKBR3 cells were trypsinized, resuspended in culture media and seeded onto assay ready plates. T47D culture media consisted of RPMI, 10% FBS and Insulin (0.2 units/mL). SKBR3 culture media consisted of McCoy's 5a and 10% FBS. Cells were seeded at a density of 5000 cells/well and dispensed in 12.5 μL onto 384 well assay ready plates (Perkin Elmer, 6008238)). Assay ready plates had previously been stamped with 10-point dilutions of compounds of interest, as well as controls. The Echo655 is used to stamp plates at 12.5 nL of compound or DMSO. Cells were grown for 6 hours at 37° Celsius and 5% CO2. After 6 hours, 4 μL of Lysis buffer reagent was added to the plate, which was then centrifuged for 1 minute at 1000 rpm. Then the plate was incubated at room temperature for 30 minutes. After 30 minutes, 4 μL of antibody mix containing Eu Cryptate, d2 Cryptate, and detection buffer, was added to the plate. The plate was centrifuged for 1 minute at 1000 rpm and then incubated overnight at room temperature. The plate was read on an Envision plate reader using the HTRF protocol. The percentage of inhibition of AKT phosphorylation was calculated using the following formula: % Inhibition=100×(pAKTHC−pAKTSample)/(pAKTHC−pAKTLC)), where pAKTHC is obtained from cells treated with 0.1% DMSO only; PAKTLC is obtained from cells treated with 10 uM Alpelisib. The IC50 (concentration achieving 50% inhibition of pAKT) is calculated by fitting the Curve using XIfit (v5.3.1.3), equation 201: Y=Bottom+(Top−Bottom)/(1+10^((LogIC50−X)*HillSlope)).

[4] = tested on: phosphorylation of AKT (pAKT) in SKBR3 cells express WT PI3Ka; experiment: In vitro cell pAKT (Ser473) HTRF, SKBR3 cells; details: cellular pAKT
Procedure: as §3, §4

Cc1cc(C(C)Nc2ccccc2C(=O)O)c2cc(N3Cc4cccnc4C3)n(C)c(=O)c2c1 (single isomer, unassigned) [Example 19, 2-((1-(3-(5,7-dihydro-6H-pyrrolo[3,4-b]pyridin-6-yl)-2,7-dimethyl-1-oxo-1,2-dihydroisoquinolin-5-yl)ethyl)amino)benzoic acid]
EC50 [1]: 0.001 to 0.5 µM
EC50 ([2]; 72 hours): 2 to 15 µM
IC50 [3]: 0.001 to 0.5 µM
IC50 ([4]; 6 hours): > 15 µM

Cc1cc(C(C)Nc2ccccc2C(=O)O)c2cc(-c3ccc(C)nc3)n(C)c(=O)c2c1 (single isomer, unassigned) [Example 20, 2-((1-(2,7-dimethyl-3-(6-methylpyridin-3-yl)-1-oxo-1,2-dihydroisoquinolin-5-yl)ethyl)amino)benzoic acid]
EC50 [1]: 2 to 15 µM
EC50 ([2]; Homo sapiens, SK-BR-3, 72 h): > 15 µM
IC50 [3]: > 15 µM
IC50 ([4]; Homo sapiens, SK-BR-3, 6 h): > 15 µM

Cc1cc(C(C)Nc2ccccc2C(=O)O)c2cc(-c3ccc(C)nc3)n(C)c(=O)c2c1 (single isomer, unassigned) [Example 21, 2-((1-(2,7-dimethyl-3-(6-methylpyridin-3-yl)-1-oxo-1,2-dihydroisoquinolin-5-yl)ethyl)amino)benzoic acid]
EC50 [1]: 0.001 to 0.5 µM
EC50 ([2]; 72 hours): > 15 µM
IC50 [3]: 0.001 to 0.5 µM
IC50 ([4]; 6 hours): > 15 µM

Cc1cc(C(C)Nc2ccc(Cl)nc2C(=O)O)c2cc(C3=CCC(C)(C)CC3)n(C)c(=O)c2c1 (single isomer, unassigned) [Example 22, 6-chloro-3-((1-(3-(4,4-dimethylcyclohex-1-en-1-yl)-2,7-dimethyl-1-oxo-1,2-dihydroisoquinolin-5-yl)ethyl)amino)picolinic acid]
EC50 [1]: 2 to 15 µM
EC50 ([2]; Homo sapiens, SK-BR-3, 72 h): 2 to 15 µM
IC50 [3]: 2 to 15 µM
IC50 ([4]; Homo sapiens, SK-BR-3, 6 h): > 15 µM

Cc1cc(C(C)Nc2ccccc2C(=O)O)c2cc(N3C[C@H]4CN(CC(F)(F)F)C[C@H]4C3)n(C)c(=O)c2c1 (single isomer, unassigned) [Example 30]
EC50 [1]: 2 to 15 µM
EC50 ([2]; Homo sapiens, SK-BR-3, 72 h): 2 to 15 µM
IC50 [3]: > 15 µM
IC50 ([4]; Homo sapiens, SK-BR-3, 6 h): > 15 µM

Cc1cc(C(C)Nc2ccccc2C(=O)O)c2cc(N3C[C@H]4CN(CC(F)(F)F)C[C@H]4C3)n(C)c(=O)c2c1 (single isomer, unassigned) [Example 31]
EC50 [1]: 0.001 to 0.5 µM
EC50 ([2]; 72 hours): 2 to 15 µM
IC50 [3]: 0.001 to 0.5 µM
IC50 ([4]; 6 hours): > 15 µM

Cc1cc(C(C)Nc2ccccc2C(=O)O)c2cc(N3CCN(C(=O)CC(C)C)CC3)n(C)c(=O)c2c1 (single isomer, unassigned) [Example 32, 2-((1-(2,7-dimethyl-3-(4-(3-methylbutanoyl)piperazin-1-yl)-1-oxo-1,2-dihydroisoquinolin-5-yl)ethyl)amino)benzoic acid]
EC50 [1]: > 15 µM
EC50 ([2]; Homo sapiens, SK-BR-3, 72 h): > 15 µM
IC50 [3]: > 15 µM
IC50 ([4]; Homo sapiens, SK-BR-3, 6 h): > 15 µM

Cc1cc(C(C)Nc2ccccc2C(=O)O)c2cc(N3CCN(C(=O)CC(C)C)CC3)n(C)c(=O)c2c1 (single isomer, unassigned) [Example 33, 2-((1-(2,7-dimethyl-3-(4-(3-methylbutanoyl)piperazin-1-yl)-1-oxo-1,2-dihydroisoquinolin-5-yl)ethyl)amino)benzoic acid]
EC50 [1]: 0.001 to 0.5 µM
EC50 ([2]; 72 hours): > 15 µM
IC50 [3]: 0.001 to 0.5 µM
IC50 ([4]; 6 hours): > 15 µM

Cc1cc(C(C)Nc2ccccc2C(=O)O)c2cc(C#Cc3ccccc3)n(C)c(=O)c2c1 (single isomer, unassigned) [Example 35, 2-((1-(2,7-dimethyl-1-oxo-3-(phenylethynyl)-1,2-dihydroisoquinolin-5-yl)ethyl)amino)benzoic acid]
EC50 [1]: > 15 µM
EC50 ([2]; Homo sapiens, SK-BR-3, 72 h): > 15 µM
IC50 [3]: > 15 µM
IC50 ([4]; Homo sapiens, SK-BR-3, 6 h): > 15 µM

Cc1cc(C(C)Nc2ccccc2C(=O)O)c2cc(C#Cc3ccccc3)n(C)c(=O)c2c1 (single isomer, unassigned) [Example 36, 2-((1-(2,7-dimethyl-1-oxo-3-(phenylethynyl)-1,2-dihydroisoquinolin-5-yl)ethyl)amino)benzoic acid]
EC50 [1]: 0.001 to 0.5 µM
EC50 ([2]; 72 hours): > 15 µM
IC50 [3]: 0.001 to 0.5 µM
IC50 ([4]; 6 hours): > 15 µM
